Results reported in PMC6009979, “The role of 5-arylalkylamino- and 5-piperazino- moieties on the 7-aminopyrazolo[4,3-d]pyrimidine core in affecting adenosine A1 and A2A receptor affinity and selectivity profiles” (Journal of Enzyme Inhibition and Medicinal Chemistry, 2017).

What was measured:
hA3 AR = molecular target: T1, hA3 AR (Homo sapiens, UniProt P0DMS8); test: [125I]AB-MECA competition binding to hA3 CHO membranes; details: for inhibition / inhibition at 1 µM: inhibition at 1 μM, read-out: Binding experiments I% hA3
T1 construct: expressed in transfected cells; host or cells: CHO cells (membranes)
T1 sequence (P0DMS8 1-318): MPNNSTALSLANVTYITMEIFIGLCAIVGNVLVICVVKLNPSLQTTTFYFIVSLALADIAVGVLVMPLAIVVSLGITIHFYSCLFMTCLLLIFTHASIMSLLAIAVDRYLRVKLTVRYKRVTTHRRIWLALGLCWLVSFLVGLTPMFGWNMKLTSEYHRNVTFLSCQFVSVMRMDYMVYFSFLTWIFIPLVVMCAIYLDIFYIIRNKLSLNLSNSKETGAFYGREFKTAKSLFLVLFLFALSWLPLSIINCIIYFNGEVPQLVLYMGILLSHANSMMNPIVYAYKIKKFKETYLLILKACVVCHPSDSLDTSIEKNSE
Protocol: All synthesized compounds were tested to evaluate their affinity at human A1, A2A and A3 ARs. Displacement experiments of [^3H]DPCPX (1 nM) to hA1 CHO membranes (50 µg of protein/assay) and at least 6–8 different concentrations of antagonists for 120 min at 25 °C in 50 mM Tris-HCl buffer pH 7.4 were performed. Non-specific binding was determined in the presence 1 µM of DPCPX (≤10% of the total binding). […] Competition binding experiments to hA3 CHO membranes (50 µg of protein/assay) were performed incubating 0.5 nM [^125I]AB-MECA, 50 mM Tris-HCl buffer, 10 mM MgCl2, 1 mM EDTA, pH 7.4 and at least 6–8 different concentrations of examined ligands for 60 min at 37 °C[54]. Non-specific binding was defined as binding in the presence of 1 µM AB-MECA and was about 20% of total binding. Bound and free radioactivity were separated by filtering the assay mixture through Whatman GF/B glass fiber filters by using a Brandel cell harvester. The filter bound radioactivity was counted by Scintillation Counter Packard Tri Carb 2810 TR with an efficiency of 58%.
(§1) The protein concentration was determined according to a Bio-Rad method[56] with bovine albumin as a standard reference. Inhibitory binding constant (Ki) values were calculated from those of IC50 according to Cheng & Prusoff equation Ki = IC50/(1 + [C*]/KD*), where [C*] is the concentration of the radioligand and KD* its dissociation constant. A weighted non-linear least-squares curve fitting program LIGAND[58] was used for computer analysis of inhibition experiments. IC50 values obtained in cyclic AMP assay were calculated by non-linear regression analysis using the equation for a sigmoid concentration–response curve (Graph-PAD Prism, San Diego, CA).

hA2B AR = molecular target: T2, hA2B AR (Homo sapiens, UniProt P29275); test: cAMP assay in hA2B CHO cells stimulated by 200 nM NECA; type: cell-based; details: read-out: cAMP assays I% hA2B
T2 construct: expressed in transfected cells; host or cells: CHO cells
T2 sequence (P29275 1-332): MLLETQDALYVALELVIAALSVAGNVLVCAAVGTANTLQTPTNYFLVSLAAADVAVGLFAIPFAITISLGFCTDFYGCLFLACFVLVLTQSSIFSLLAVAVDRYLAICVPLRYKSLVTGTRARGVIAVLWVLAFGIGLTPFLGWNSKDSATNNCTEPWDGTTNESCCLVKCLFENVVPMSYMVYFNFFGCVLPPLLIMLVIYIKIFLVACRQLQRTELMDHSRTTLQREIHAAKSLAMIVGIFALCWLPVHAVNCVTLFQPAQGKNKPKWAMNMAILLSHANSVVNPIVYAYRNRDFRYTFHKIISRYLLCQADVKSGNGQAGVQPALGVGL
Protocol: CHO cells transfected with hA2B AR subtypes were washed with phosphate-buffered saline, diluted trypsin and centrifuged for 10 min at 200 g. The cells (1 × 10^6 cells/assay) were suspended in 0.5 ml of incubation mixture (mM): NaCl 15, KCl 0.27, NaH2PO4 0.037, MgSO4 0.1, CaCl2 0.1, Hepes 0.01, MgCl2 1, glucose 0.5, pH 7.4 at 37 °C, 2 IU/ml adenosine deaminase and 4–(3-butoxy-4-methoxybenzyl)-2-imidazolidinone (Ro 20–1724) as phosphodiesterase inhibitor and preincubated for 10 min in a shaking bath at 37 °C. The potency of antagonists to the A2B AR was determined by the inhibition of NECA (200 nM)-induced cyclic AMP production. The reaction was terminated by the addition of cold 6% trichloroacetic acid (TCA). The TCA suspension was centrifuged at 2000 g for 10 min at 4 °C and the supernatant was extracted four times with water saturated diethyl ether. The final aqueous solution was tested for cyclic AMP levels by a competition protein binding assay. Samples of cyclic AMP standard (0–10 pmoles) were added to each test tube containing [^3H] cyclic AMP and incubation buffer (trizma base 0.1 M, aminophylline 8.0 mM, 2-mercaptoethanol 6.0 mM, pH 7.4). The binding protein prepared from beef adrenals was added to the samples previously incubated at 4 °C for 150 min, and, after the addition of charcoal, was centrifuged at 2000 g for 10 min. The clear supernatant was counted in a Scintillation Counter Packard Tri Carb 2810 TR with an efficiency of 58%.
as §1

hA2A AR = molecular target: T3, hA2A AR (Homo sapiens, UniProt P29274); test: [3H]ZM241385 competition binding to hA2A CHO membranes; details: [3H]ZM241385, hA2A CHO; for Ki: mean ± SEM of four assays, read-out: Binding experiments Ki hA2A; for Binding experiments I% hA2A: inhibition at 1 μM
T3 construct: expressed in transfected cells; host or cells: CHO cells (membranes)

hA1 AR = molecular target: T4, hA1 AR (Homo sapiens, UniProt P30542); test: [3H]DPCPX competition binding to hA1 CHO membranes; details: for Ki: mean ± SEM of four assays, read-out: Binding experiments Ki hA1
T4 construct: expressed in transfected cells; host or cells: CHO cells (membranes)
T4 sequence (P30542 1-326): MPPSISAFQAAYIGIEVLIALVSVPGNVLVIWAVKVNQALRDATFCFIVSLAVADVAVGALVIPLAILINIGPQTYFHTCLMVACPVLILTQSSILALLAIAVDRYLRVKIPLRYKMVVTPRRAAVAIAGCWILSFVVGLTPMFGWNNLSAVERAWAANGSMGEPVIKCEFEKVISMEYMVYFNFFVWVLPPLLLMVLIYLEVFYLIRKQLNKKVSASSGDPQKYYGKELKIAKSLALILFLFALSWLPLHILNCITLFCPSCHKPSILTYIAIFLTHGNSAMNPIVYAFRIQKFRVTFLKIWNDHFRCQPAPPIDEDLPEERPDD

T3 sequence (P29274 whole entry): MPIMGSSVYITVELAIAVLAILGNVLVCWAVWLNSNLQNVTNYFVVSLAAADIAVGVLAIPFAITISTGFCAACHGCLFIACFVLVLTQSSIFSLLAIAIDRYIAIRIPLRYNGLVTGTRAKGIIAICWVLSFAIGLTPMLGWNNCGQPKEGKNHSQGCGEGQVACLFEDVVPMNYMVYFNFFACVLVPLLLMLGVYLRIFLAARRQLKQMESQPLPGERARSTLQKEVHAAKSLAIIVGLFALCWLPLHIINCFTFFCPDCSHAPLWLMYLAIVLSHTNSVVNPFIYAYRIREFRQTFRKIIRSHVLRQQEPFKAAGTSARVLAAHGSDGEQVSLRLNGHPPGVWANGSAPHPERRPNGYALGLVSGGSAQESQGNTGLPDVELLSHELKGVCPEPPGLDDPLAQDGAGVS

Row | SMILES | Ki (hA3 AR; mean ± SEM of four assays, read-out: Binding experiments Ki hA3) [nM] | inhibition at 1 µM (hA2B AR) [%] | Ki (hA2A AR) [nM] | Ki (hA1 AR) [nM] | inhibition (hA3 AR) [%] | Binding experiments I% hA2A (hA2A AR) [%] | Binding experiments I% hA1 (hA1 AR; inhibition at 1 μM) [%] | inhibition at 1 µM (hA3 AR) [%]
1 | Nc1nc(NCc2ccccc2)nc2cn(-c3ccccc3)nc12 [Compound 5, 7-Amino-5-benzylamino-2-phenyl-2H-pyrazolo[4,3-d]pyrimidine] | 28 ± 3 | 2 | 123 ± 11 | 25 ± 3 | – | – | – | –
2 | CC(C)(C)CC(=O)N1CCN(c2nc(N)c3nn(-c4ccccc4)cc3n2)CC1 [Compound 23, 7-Amino-2-phenyl-5-(4-(3,3-dimethylbutiryl)piperazin-1-yl)-2H-pyrazolo[4,3-d]pyrimidine] | – | 2 | – | – | 1 | 2 | 29 | –
3 | Nc1nc(N2CCN(c3ccccc3)CC2)nc2cn(-c3ccccc3)nc12 [Compound 15, 7-Amino-2-phenyl-5-(4-phenylpiperazin-1-yl)-2H-pyrazolo[4,3-d]pyrimidine] | – | 1 | – | 647 ± 53 | 20 | 20 | – | –
4 | Nc1nc(N2CCN(Cc3ccccc3)CC2)nc2cn(-c3ccccc3)nc12 [Compound 16, 7-Amino-5-(4-benzylpiperazin-1-yl)-2-phenyl-2H-pyrazolo[4,3-d]pyrimidine] | – | 1 | – | 162 ± 14 | 1 | 1 | – | –
5 | Nc1nc(N2CCN(C(=O)Cc3ccccc3)CC2)nc2cn(-c3ccccc3)nc12 [Compound 24, 7-Amino-2-phenyl-5-(4-phenylacetylpiperazin-1-yl)-2H-pyrazolo[4,3-d]pyrimidine] | – | 3 | – | 429 ± 36 | 1 | 3 | – | –
6 | Nc1nc(NCCCc2ccccc2)nc2cn(-c3ccccc3)nc12 [Compound 7, 7-Amino-5-(3-phenylpropyl)-2-phenyl-2H-pyrazolo[4,3-d]pyrimidines] | – | 1 | – | 785 ± 72 | – | 29 | – | 24
7 | Nc1nc(N2CCN(C(=O)c3ccco3)CC2)nc2cn(-c3ccccc3)nc12 [Compound 20] | – | 2 | – | 580 ± 47 | 13 | 16 | – | –
8 | COc1ccc(CCNc2nc(N)c3nn(-c4ccccc4)cc3n2)cc1 [Compound 11, 7-Amino-5-[2–(4-methoxyphenyl)ethyl]amino-2-phenyl-2H-pyrazolo[4,3-d]pyrimidine] | – | 1 | – | 153 ± 11 | – | 26 | – | 19
9 | CC(C)(C)OC(=O)N1CCN(c2nc(N)c3nn(-c4ccccc4)cc3n2)CC1 [Compound 21, Tert-butyl 4-(7-amino-2-phenyl-2H-pyrazolo[4,3-d]pyrimidin-5-yl)piperazine 1-carboxylate] | – | 1 | – | 615 ± 49 | 21 | 33 | – | –
10 | Nc1nc(N2CCN(CCc3ccccc3)CC2)nc2cn(-c3ccccc3)nc12 [Compound 17, 7-Amino-5-(4-phenylethylpiperazin-1-yl)-2-phenyl-2H-pyrazolo[4,3-d]pyrimidine] | – | 1 | – | 518 ± 42 | 40 | 40 | – | –
11 | Nc1nc(NCCc2ccc(O)c(O)c2)nc2cn(-c3ccccc3)nc12 [Compound 14, 7-Amino-5-(3,4-dihydroxyphenethyl)amino-2-phenyl-2H-pyrazolo[4,3-d]pyrimidine] | – | 1 | 238 ± 24 | 71 ± 6 | – | – | – | 3
12 | COc1ccc(CCNc2nc(N)c3nn(-c4ccccc4)cc3n2)cc1OC [Compound 13, 7-Amino-5-[2-(3,4-dimethoxyphenyl)ethyl]amino-2-phenyl-2H-pyrazolo[4,3-d]pyrimidine] | – | 17 | 189 ± 18 | 415 ± 39 | – | – | – | 22
13 | Nc1nc(N2CCN(Cc3ccc(F)cc3Cl)CC2)nc2cn(-c3ccccc3)nc12 [Compound 19, 7-Amino-5-(4-(2-chloro-4-fluoro)benzylpiperazin-1-yl)-2-phenyl-2H-pyrazolo[4,3-d]pyrimidine] | – | 2 | – | 193 ± 17 | 1 | 29 | – | –
